Measurements from US20120010075A1 (priority 2009, published 2012).
Like-named read-outs stand apart in the source and are kept apart here.

Experiments:
[1] = tested on: Leptosphaeria nodorum (LEPTNO); test: In vitro fungitoxicity of hydrazones with and without copper towards Leptosphaeria nodorum (Example 26); format: cell-based; conditions: 72 h at 25° C.; for inhibition of growth at 0.05 µg/mL: Parastagonospora nodorum, 72 h, copper-minus medium, read-out: LEPTNO % Inhn. Minus Copper Observed
[2] = tested on: Phytophthora infestans; format: in vivo, Phytophthora infestans on tomato; conditions: applied 24 h before inoculation, assessed 7 days after inoculation
[3] = compound 0.05 μg/mL, copper-plus medium (CuCl2.2H2O)
[4] = hydrazone 50 ppm + 50 μM CuCl2.2H2O, tomato
[5] = test compound Concn. 0.05 μg/mL
[6] = copper-plus medium (CuCl2 10 μM), test compound Concn. 0.05 μg/mL
[7] = hydrazone 50 ppm with 50 μM CuCl2.2H2O, tomato late blight

Structure (SMILES)	melting point [°C]	inhibition of growth at 0.05 µg/mL ([1]; compound 0.05 μg/mL) [%]	LEPTNO % Inhn. Plus Copper Observed [1, 3] [%]	TLB % Control [2, 4] [%]	inhibition of growth at 0.05 µg/mL [1, 5] [%]	LEPTNO % Inhn. Plus Copper Observed [1, 6] [%]	TLB % Control [2, 7] [%]
O=C(N/N=C/c1cc(Cl)cc(Cl)c1O)c1cccc(OC(F)(F)F)c1 [Example 250]	180 to 182	8.7	98.1	97.0	–	–	–
C/C(=N\NC(=O)c1ccccc1Br)c1cc(Br)ccc1O [Example 519]	216 to 218	–	–	–	9.1	95.7	88.0
C/C(=N\NC(=O)c1cccc(C)c1)c1cccc(Cl)c1O [Example 494]	164 to 178	–	–	–	0	97.7	96.0
Cc1cccc(C(=O)N/N=C/c2cc(Cl)cc(Cl)c2O)c1O [Example 73]	202 to 209	8.6	98.0	87.3	–	–	–
C/C(=N\NC(=O)c1ccccc1C)c1cc(Br)ccc1O [Example 288]	201 to 203	1.8	98.2	26.0	–	–	–
C/C(=N\NC(=O)c1ccc(C(F)(F)F)cc1)c1cccc([N+](=O)[O-])c1O [Example 523]	267 to 278	–	–	–	7	97.7	92.0
Cc1ccc(C(=O)N/N=C/c2c(O)cccc2Cl)c(O)c1 [Example 408]	273 to 276	–	–	–	8.4	79.7	94.0
C/C(=N\NC(=O)c1ccc(Cl)cc1)c1cccc(Cl)c1O [Example 498]	208 to 209	–	–	–	0	97.5	85.0
C/C(=N\NC(=O)c1ccccc1O)c1cc(Br)cc(Br)c1O [Example 550]	305 to 306	–	–	–	4.6	97.2	63.0
O=C(N/N=C/c1cc(C(F)(F)F)ccc1O)c1cccc([N+](=O)[O-])c1 [Example 441]	218 to 220	–	–	–	0	100.0	96.0
C/C(=N\NC(=O)c1ccccc1O)c1cc(Cl)cc(Cl)c1O [Example 471]	306 to 308	–	–	–	7.9	97.8	83.0
Cc1cc(O)c(/C=N/NC(=O)c2ccccc2)cc1Cl [Example 239]	206 to 208	0.1	97.8	66.1	–	–	–
C/C(=N\NC(=O)c1cccc(Cl)c1)c1cccc([N+](=O)[O-])c1O [Example 273]	251 to 286	0.4	97.7	44.0	–	–	–
COc1ccc(/C(C)=N/NC(=O)c2ccc(Br)cc2)c(O)c1OC [Example 559]	241 to 245	–	–	–	10	97.3	93.0
C/C(=N\NC(=O)c1cccc(C)c1)c1cc(C(F)(F)F)ccc1O [Example 529]	235 to 238	–	–	–	15.3	97.7	46.0
O=C(N/N=C/c1cccc(Cl)c1O)c1ccccc1O [Example 431]	266 to 268	–	–	–	8.5	95.1	91.0
Cc1ccc(C(=O)N/N=C/c2cc(Cl)cc(Br)c2O)c(O)c1 [Example 434]	262 to 268	–	–	–	25.6	97.4	100.0
C/C(=N\NC(=O)c1ccccc1O)c1cccc(Cl)c1O [Example 503]	283 to 287	–	–	–	5.2	97.0	66.0
O=C(N/N=C/c1cc(Cl)cc(Cl)c1O)c1ccc(Cl)cc1O [Example 474]	276 to 279	–	–	–	39.2	97.6	100.0
CC(C)(C)/C(=N\NC(=O)c1ccccc1)c1ccccc1O [Example 592]	241 to 243	–	–	–	0	25.4	1.4
O=C(N/N=C/c1c(O)cccc1F)c1ccccc1 [Example 245]	216 to 218	0	96.7	52.7	–	–	–

Structure (SMILES)	melting point [°C]	inhibition of growth at 0.05 µg/mL ([1]; compound 0.05 μg/mL) [%]	LEPTNO % Inhn. Plus Copper Observed [1, 3] [%]	TLB % Control [2, 4] [%]	inhibition of growth at 0.05 µg/mL [1, 5] [%]	LEPTNO % Inhn. Plus Copper Observed [1, 6] [%]	TLB % Control [2, 7] [%]
Cc1ccc(C(=O)N/N=C/c2cc(Cl)cc(Cl)c2O)c(O)c1 [Example 308]	262 to 269	–	–	–	37.2	97.7	96.0
COc1ccc(/C(C)=N/NC(=O)c2ccc(Br)cc2)c(O)c1 [Example 483]	239 to 241	–	–	–	0	97.9	63.0
C/C(=N\NC(=O)c1ccccc1Cl)c1cccc(Cl)c1O [Example 496]	189 to 193	–	–	–	0.7	97.8	94.0
COc1ccc(C(=O)N/N=C(\C)c2cc(F)cc(F)c2O)cc1 [Example 579]	243 to 247	–	–	–	0	97.6	97.0
O=C(N/N=C/c1cc(C(F)(F)F)cc(Cl)c1O)c1cccc([N+](=O)[O-])c1 [Example 327]	237 to 238	–	–	–	1.2	95.7	98.0
C/C(=N\NC(=O)c1ccc(Br)cc1)c1cc(C(F)(F)F)ccc1O [Example 535]	256 to 259	–	–	–	10.1	97.7	56.0
C/C(=N\NC(=O)c1cccc(Cl)c1)c1cc(Br)ccc1O [Example 292]	235 to 240	5	97.6	21.0	–	–	–
C/C(=N\NC(=O)c1ccccc1Cl)c1cc(Br)cc(Br)c1O [Example 543]	207 to 209	–	–	–	1.3	93.9	100.0
C/C(=N\NC(=O)c1ccccc1C)c1cc(C(F)(F)F)ccc1O [Example 528]	200 to 203	–	–	–	8.7	97.7	73.0
COc1cccc(/C(C)=N/NC(=O)c2ccccc2O)c1O [Example 468]	255 to 257	–	–	–	6.2	98.1	92.0
C/C(=N\NC(=O)c1ccccc1)c1ccc(Cl)cc1O [Example 251]	236 to 237	3.5	98.1	33.0	–	–	–
Cc1cc(C)cc(C(=O)N(/N=C/c2cc(Cl)cc(Cl)c2O)C(C)(C)C)c1 [Example 211]	220 to 227	7	97.1	16.0	–	–	–
C/C(=N\NC(=O)c1cccc(Oc2ccccc2)c1)c1ccccc1O [Example 47]	178 to 180	0	97.1	33.0	–	–	–
O=C(N/N=C/c1cc(C(F)(F)F)ccc1O)c1cccc(Cl)c1 [Example 439]	187 to 197	–	–	–	0	100.0	96.0
C/C(=N\NC(=O)c1ccccc1)c1cccc(Cl)c1O [Example 492]	202 to 203	–	–	–	0	98.1	93.0
O=C(N/N=C/c1cc(Cl)cc(Cl)c1O)c1cc(Br)ccc1Cl [Example 98]	191 to 192	16.8	98.1	79.7	–	–	–
O=C(N/N=C/c1cc(Cl)ccc1O)c1cccc(F)c1 [Example 420]	205 to 224	–	–	–	11.4	97.5	100.0
C/C(=N\NC(=O)c1cccc(Cl)c1O)c1cc(Cl)cc(Cl)c1O [Example 481]	260 to 262	–	–	–	10.3	97.8	76.0
C/C(=N\NC(=O)c1ccc(C)cc1)c1cccc(Cl)c1O [Example 495]	195 to 200	–	–	–	0	97.3	91.0
COc1ccc(/C(C)=N/NC(=O)c2ccc(C)cc2)c(O)c1OC [Example 554]	245 to 249	–	–	–	0	97.3	100.0
